Reference: patent US8846066B2, “Methods and related compositions for reduction of fat and skin tightening” (The Regents of the University of California, priority 2004, dated 2014)
“And” between values parts separate entries of the source, which are not always exact repeats. Equal entries are not always repeated.

Experiments:
[1] = test system: CHL; assay: Killing by DC after pre-incubation with human lipoma fat, CHL; format: cell-based
Protocol: (§1) The experiment was performed on a series of immortalized melanocyte cell lines. Resected human lipomas were ground up, and DC-containing media was mixed with the human fat and agitated for 24 hours. The material was centrifuged to pellet insoluble contents. The supernatants were then added on top of cultured melanocytes. Control was the identical DC-containing media not exposed to the fat chunks. Also, fat alone (no media) was added as a control.

[2] = test system: primary adipocytes; assay: MTS survival of adipocytes after DC with or without 1% PC; format: cell-based, human; conditions: 30 min; for Adipocytes surviving in DC only: MTS OD 490 nm, single wells; for Average (DC only): mean MTS OD 490 nm
Protocol: Adipocytes in adipocyte media on a 96-well dish were differentiated at 37° C. in a humidified, 5% CO2 incubator for a week. Media was aspirated and washed with 1×PBS once. Cells were treated with different concentrations of DC (from 0 to 0.5%) with or without 1% PC in 1×PBS. Each treatment was done in triplicates (Table 5). The plates were incubated at 37° C. in a humidified, 5% CO2 incubator for 30 min. The incubated plates were aspirated and washed with 1×PBS.
10 mL of MTS (3-(4,5-dimethyl-2-yl)-5-(3-carboxymethoxyphenyl)-2-(4-sulfophenyl)-2H-tetrazolium, inner salt) assay solution was prepared (mixed 40 uL MTS (Promega, Madison Wis.) per 1 mL 1×PBS). 100 ul of MTS solution was added to each well of the plates. The plates were incubated at 37° C. incubator (non-humidified) for 120 min. OD was taken with spectrophotometer at 490 nm.
FIG. 8 illustrates the survival of adipocytes in sodium deoxycholate solution and sodium deoxycholate with 1% phosphatidylcholine solution. The adipocyte cells are primary (i.e., taken freshly from a person) adipocytes, cultured in vitro to maturity before treatment with DC. On y-axis, 1 represents 100% survival when no DC is added. All % concentrations are w/v %. […] The addition of sodium deoxycholate with 1% phosphatidylcholine solution increases the LD50 by ˜5-6 fold.

[3] = test system: porcine fat tissue; assay: MTS assay in fresh porcine fat specimens; format: cell-based; conditions: PBF or 5% solutions, 4 hours
Protocol: To measure cell viability after detergent treatment, HaCaT human keratinocyte cells were cultured in DMEM (Dulbecco's modified Eagle's medium) supplemented with 10% fetal calf serum, penicillin, and streptomycin. […] Cell viability was determined by an absorbance spectrophotometer (at 490 nm) after 4 hour incubation with the assay at 37° C. To determine cell viability in fresh tissue, fat specimens were incubated for 4 hours in 24 well plates with stock reagents and the MTS assay. Tissue specimens were then visualized for color change and the amount of MTS in their supernatants was measured by absorbance (at 490 nm). All studies were performed in triplicate. Absorbance at 490 nm (OD 490) is proportional to the number of living cells in the culture.
Porcine tissue was obtained immediately after sacrifice, shaved, and placed on ice for a maximum of four hours before use. […] Calcein retention was determined by tissue fluorescence using purple (411 nm) light and visually observing the emitted green (500 nm) light using an emission filters.
Fresh porcine skin was used to determine if the effects of these detergent substances on cultured cells were similar in tissue. […] The difference in fat cell viability between the solutions was quantified by measuring the absorbance (at 490) of the supernatants collected from the treated fat specimens (FIG. 3b). […]

[4] = test system: lipomas; assay: Injection of DC solutions into lipomas of patients (Example 4); format: in vivo, human
Protocol: Patients having lipomas, benign, isolated collections of adipose tissue, were injected with sodium deoxycholate (DC) solutions without phosphatidylcholine directly into the lipoma. […] A lipoma from one patient, injected with 1% DC, was excised after treatment and pathological and histological analysis performed. Within the excised lipoma, necrosis is visible grossly (FIG. 6a) with a well demarcated area of hemorrhage and necrosis on the lateral edge extending into the middle of the lipoma fat which contrasts with the normal lipoma fat which is lighter in color.

[5] = test system: adipocytes; assay: Adipocyte survival on addition of PC to 4.75% DC; format: cell-based; conditions: for Average / Adipocytes surviving by adding PC to 4.75% DC: 4.75% DC; for Adipocytes surviving by adding PC to 4.75% DC: single wells
Protocol: FIG. 9 illustrates survival of adipocytes when phosphatidylcholine is added to 4.75% sodium deoxycholate solution. On y-axis, 1 represents 100% survival. All % concentrations are w/v %. Survival of the cells in the absence of DC and PC is on an average 0.113.

[6] = test system: porcine skin (epidermis, dermis, subcutaneous tissue, muscle); assay: Histology of full thickness porcine skin after injection; conditions: 0.5 mL stock reagent injected, one hour at 37° C., H&E
Protocol: Histology was performed by injecting stock reagent solutions (0.5 mL) into full thickness porcine skin at various levels (epidermis, dermis, and subcutaneous tissue) with 1.0 mL syringes and 30-gauge, 0.5 inch needles. Needle depth was visualized along the margin of the porcine tissue with the intent of saturating the target tissue. One hour after incubation with PBS at 37° C., multiple 5.0 mm biopsy specimens were obtained from the injected sites, each condition performed in triplicate. Tissue was fixed in formaldehyde, paraffin-embedded, and stained with hematoxylin-eosin. Specimens were evaluated by a board-certified dermatopathologist who was blinded to the treatment protocol.

[7] = test system: WM266; assay: Killing by DC after pre-incubation with human lipoma fat, WM266; format: cell-based
Protocol: as §1

[8] = DC 0.1% media not exposed to fat
[9] = single wells, DC 0.1% media not exposed to fat
[10] = single wells, supernatant of DC 0.1% media agitated 24 hours with human lipoma fat
[11] = supernatant of DC 0.1% media agitated 24 hours with human lipoma fat

## C[C@H](CCC(=O)[O-])[C@H]1CC[C@H]2[C@@H]3CC[C@@H]4C[C@H](O)CC[C@]4(C)[C@H]3C[C@H](O)[C@]12C.[Na+] [DC, sodium deoxycholate]
[1]; Control = 1, DC 0.1% media not exposed to fat
  Percentage, DC 0.1%: 0.098
[1]; Control = 1, DC 0.1% media pre-incubated with human lipoma fat
  Percentage, DC 0.1% + fat: 0.610
[1]; [8]
  Average, DC 0.1%: 0.065
[1]; [9]
  Actual, DC 0.1%: 0.064 and 0.066
  CHL (readings), DC 0.1%: 0.064 and 0.066
[1]; [10]
  Actual, DC 0.1% + fat: 0.402 and 0.426 and 0.378
  CHL (readings), DC 0.1% + fat: 0.402 and 0.426 and 0.378
[1]; [11]
  Average, DC 0.1% + fat: 0.402
[2]; DC 0.01 (w/v %)
  Adipocytes surviving in DC only: 0.067 and 0.133 and 0.13
  Average (DC only): 0.131
[2]; DC 0.05 (w/v %)
  Adipocytes surviving in DC only: 0.01 and 0.009 and 0.008
  Average (DC only): 0.09
[2]; DC 0.1 (w/v %)
  Adipocytes surviving in DC only: 0
  Average (DC only): 0
[2]; DC 0.5 (w/v %)
  Adipocytes surviving in DC only: 0
  Average (DC only): 0
[2]; adipocytes, w/v %
  LD50 (concentration at which 50% of the fat cells are dead): around 0.02%
[2]; DC 0.005 (w/v %)
  Average (DC only): 0.111
[3]
  fat cell viability (MTS purple dye, absorbance at 490): comparable loss of purple dye
[4]; Lipoma 5, pre-treatment 2.00 × 1.75, 2 treatments (1% DC)
  Size(cm) Post-treatment: 1.25 cm
[4]; Lipoma 6, pre-treatment 2.80, 1 treatment (5% DC)
  Size(cm) Post-treatment: 0.50 cm
[4]; Lipoma 7, pre-treatment 1.00, 1 treatment (1% DC)
  Size(cm) Post-treatment: Imperceptible
[4]; after at least one treatment, varied concentrations of deoxycholate
  size of injected lipomas: reduced in size
[4]; one patient, 1% DC, removed two days after injection
  pathology and histology of excised lipoma: well defined area of hemorrhage and necrotic fat
[5]; PC 0 (w/v %)
  Average: 0
  Adipocytes surviving by adding PC to 4.75% DC: 0
[5]; PC 0.01 (w/v %)
  Average: 0
  Adipocytes surviving by adding PC to 4.75% DC: 0
[5]; PC 0.1 (w/v %)
  Average: 0
  Adipocytes surviving by adding PC to 4.75% DC: 0
[5]; PC 1 (w/v %)
  Average: 0
  Adipocytes surviving by adding PC to 4.75% DC: 0
[5]; PC 5 (w/v %)
  Average: 0.009
[5]; 4.75% sodium deoxycholate, in vitro
  adipolysis of cultured adipocytes: 100%
[6]
  histologic changes in epidermis, dermis, adnexal structures: no apparent affect
  histologic changes in fat: Marked blurring and dissolution of adipocyte cell membranes
[7]; Control = 1.000, DC 0.1% media not exposed to fat
  Percentage, DC 0.1%: 0.113
[7]; Control = 1.000, DC 0.1% media pre-incubated with human lipoma fat
  Percentage, DC 0.1% + fat: 0.539
[7]; [8]
  Average, DC 0.1%: 0.063
[7]; [9]
  Actual, DC 0.1%: 0.07 and 0.061 and 0.058
  WM266 (readings), DC 0.1%: 0.07 and 0.061 and 0.058
[7]; [10]
  Actual, DC 0.1% + fat: 0.281 and 0.308 and 0.314
  WM266 (readings), DC 0.1% + fat: 0.281 and 0.308 and 0.314
[7]; [11]
  Average, DC 0.1% + fat: 0.301
